Reference: US20240058308A1, “TREATMENT AND PREVENTION OF DRY MACULAR DEGENERATION” (The Regents of the University of Michigan, priority 2021, published 2024)

What was measured:
primary RPE cultures = experiment: APOE secretion by western blotting of supernates; assay type: cell-based, human; settings: 24 hours
Procedure: After 24 hours of exposure to drugs, supernates were collected and subjected to western blotting for APOE detection and a fluorometric assay for β-HB detection [Ref 51; incorporated by reference in its entirety]. Twenty microliters of apical and basolateral supernates for APOE were mixed with SDS sample buffer and blotted with antibody at a dilution of 1:2000. APOE and β-HB values were normalized to the average value of the vehicle and experimental group within each experimental repeat.
The RPE handles an enormous lipid burden on a daily basis, including OS ingestion from its apical side and lipoprotein particle absorption from its basolateral side. Rather than storing excess lipid, the RPE may choose to degrade or secrete surplus lipids (FIG. 4a). A marker of lipid degradation is the production of KBs, which are secreted by the RPE apically and serve as an energy source for photoreceptors [Refs. 7,8; incorporated by reference in their entireties]. A marker of lipid secretion is the production of the lipoprotein APOE, which is a major component of drusen [Ref. 50; incorporated by reference in its entirety]. It was contemplated that autophagy inducers promote ketogenesis through degradation of ingested lipids, reducing the stimulus for secretion of drusen-promoting APOE.

RPE from mouse eyecups = experiment: Ex vivo mouse eyecup autophagy induction (LC3II/LC3I ratio); settings: 24 hours
Procedure: FIG. 14. Effect of autophagy positive control Torin on RPE from mouse eyecups (DMSO as control). […] Mouse eyes were enucleated, the anterior segment vitreous, and retina were removed, leaving an eyecup with RPE/choroid exposed. […] RPE/Choroid eyecup was treated with 1 uM Torin1 in our previously established RPE cell culture media for 24 hours. n=4.
FIG. 15. Effect of Flubendazole on RPE from Mouse Eyecups (DMSO as control). Conditions with and without ammonium chloride (NH4Cl) help establish high autophagy flux rates. If true autophagy flux is happening, the LC3II/LC3I ratio should increase further upon addition of NH4Cl, as is the case here. DMSO− and FLBZ−, n=6, FLBZ+ and DMSO+ n=5. Flubendazole tested at 60 uM, lysates collected after 24 hours. Induction did occur in eyecups.
Given the inconsistent results with detecting autophagy induction using intravitreal injection of the positive control, Torin, experiments were conducted to determine whether the lack of responsiveness to intravitreal injections was a drug access issue or whether it was a species or animal vs. culture difference. Additional experiments utilized freshly isolated mouse eyecups with the retina removed to determine whether Torin (and FLBZ) induce autophagy in this context. […] The use of ammonium chloride in these experiments blocks lysosomal degradation.

primary hfRPE culture = experiment: Trans-epithelial electrical resistance (TEER), tight-junction integrity; assay type: cell-based; settings: TEER measured after 20 FLBZ feedings, after UAM accumulation
Procedure: TEER and cell death were measured [Ref 51; incorporated by reference in its entirety]. For cell death assays, maximum possible LDH release per Transwell was measured immediately after 2 μL of the final experimental supernate was taken. The Transwell and supernate was then treated with 0.2% Triton X-100 for 15 minutes at 37° C. followed by collection of an additional 2 μL of supernate. Each experimental LDH release value was first normalized to total LDH release from the vehicle condition. Additionally, all TEER and LDH release measurements were normalized to the vehicle group at the zero-hour timepoint.
(§1) To evaluate the safety of D4476 and FLBZ, trans-epithelial electrical resistance (TEER) was measured, a measure of tight-junction integrity, in RPE cultures after prolonged exposure to each compound. As well-formed tight-junctions require myriad cell processes to be optimally coordinated, assessing TEER provides an easily measurable, ongoing, and noninvasive marker for general RPE cell health [Ref. 45; incorporated by reference in its entirety]. […] Lactate dehydrogenase (LDH) release, a combined marker of necrotic and late-stage apoptotic cell death [Refs. 47,48; incorporated by reference in their entireties], was reduced compared to vehicle for all four verified RPE autophagy inducers (FIG. 3b). Exposure of RPE cultures to the oxidant tert-butyl hydroperoxide confirmed the ability of the assay to detect cell death (FIG. 10).
Transepithelial Electrical Resistance (TEER) was tested (FIGS. 16 and 17). TEER is a sensitive measure of toxicity (lower the TEER, the more toxic the drug is). Drugs were added daily and measurements made daily for at least 4-8 days.

hfRPE = assay type: cell-based, human
Procedure: Whole mounted Transwells (in duplicate) are photographed.
as §1

[1] = tested on: primary human fetal RPE (hfRPE) culture; experiment: Autophagy flux assay with NH4Cl lysosomal alkalinization; assay type: cell-based; settings: inducer 22.5 hours, then 25 mM NH4Cl for final 1.5 hours
Procedure: Cultures were exposed to compounds or vehicle (DMSO) for 24 hours. […] (C) Autophagy flux assays. After application of inducers or vehicle (DMSO) for 22.5 hours, 25 mM of NH4Cl, a lysosomal alkalizing agent, or H2O were added for a final 1.5 hours to inhibit autophagy flux.
Increases in both LC3 lipidation and autophagosome formation could result from downstream blockade of autophagy at the lysosome.

ARPE-19 = experiment: LC3 colocalization to UAM granules; assay type: cell-based, human; settings: ARPE-19 treated with drug
Excerpt: FIG. 5. Autophagy inducer FLBZ reduces accumulation of lipofuscin-like material. (A) Lipofuscin-like material, which we term undigestible autofluorescent material (UAM), accumulates in RPE after repeated feedings of photo-oxidized outer segments (oxOS). UAM granules (green). DAPI (blue). Phalloidin stain of F-actin outlining cell borders (pink). Scale bar: 10 μm. (B) Effects of FLBZ or Torin on UAM accumulation (left) and elimination (right). FLBZ or Torin is fed together with oxOS daily for 20 days in a month (left, n=5) or fed daily for 20 days in a month after completion of oxOS feedings to stimulate UAM accumulation (right, n=7). Unlike Torin, FLBZ both reduces UAM accumulation and increases UAM elimination. DMSO as vehicle control. U 673 AM normalized to DMSO condition. […] UAM (red). LC3 (green). DAPI (blue). Arrows indicate LC3 puncta surrounding a lipofuscin granule. Scale bar: 2 μm. (D) Effects of FLBZ on UAM granule size. Compared to vehicle (DMSO), FLBZ decreases UAM granule size both during oxOS feedings (left) and after UAM buildup has already occurred (right). n=40. ns p>0.05, *p<0.05, **p<0.01, ***p<0.001.
Human fetal eyes were obtained from Advanced Bioscience Resources (ABR, Alameda, California) and cultured [Ref. 43; incorporated by reference in its entirety]. ARPE-19 cells were cultured at passage 19 [Ref. 51; incorporated by reference in its entirety].

COC(=O)Nc1nc2cc(C(=O)c3ccc(F)cc3)ccc2[nH]1 [FLBZ, Flubendazole]
APOE secretion, apical and basolateral (primary RPE cultures): reduced the apical and basolateral secretion of APOE | Autophagy induction in eyecups (LC3II/LC3I ratio) (RPE from mouse eyecups; mouse RPE/choroid eyecup, Torin 1-5 uM, FLBZ 12-60 uM): induces autophagy well | Autophagy flux in eyecups: LC3-II/LC3-I ratio with vs without ammonium chloride (RPE from mouse eyecups; mouse eyecups, FLBZ 60 uM): higher LC3-II/LC3-I ratio with ammonium chloride than without ammonium chloride | Cell health by tight-junction integrity (TEER) in cultures with established UAM (primary hfRPE culture): improved cell health | RPE pigmentation (hfRPE): preserved pigmentation | Autophagy flux: LC3-II/LC3-I ratio after NH4Cl [1]: induces autophagy flux | LC3 colocalization to UAM granules (ARPE-19): LC3 colocalization to UAM granules
